# Results taken from the kinase profiling compilation of Christmann-Franck et al. (2016).
# How the values were obtained:
# Experiment in all cases: radiometric filter-binding kinase assay, Kinase HotSpot
# Details in all cases: compound 0.5 µM; ATP 10 µM
# TSSK1B (human) = TSSK1B (human) (UniProt Q9BXA7)
# PHKG2 (human) = PHKG2 (human) (UniProt P15735)
# PDPK1 (human) = PDPK1 (human) (UniProt O15530)
# CDK6 CCND1 (human) = CDK6 CCND1 (human) (UniProt Q00534+P24385)
# RPS6KB1 (human) = RPS6KB1 (human) (UniProt P23443)
# TEC (human) = TEC (human) (UniProt P42680)
# MAPK14 (human) = MAPK14 (human) (UniProt Q16539)
# PKN2 (human) = PKN2 (human) (UniProt Q16513)
# KIT (human) = KIT (human) (UniProt P10721)
# TNK2 (human) = TNK2 (human) (UniProt Q07912)
# ERBB4 (human) = ERBB4 (human) (UniProt Q15303)
# MAPK1 (human) = MAPK1 (human) (UniProt P28482)
# TAOK1 (human) = TAOK1 (human) (UniProt Q7L7X3)
# RAF1 (human) = RAF1 (human) (UniProt P04049)
# MERTK (human) = MERTK (human) (UniProt Q12866)
# PAK3 (human) = PAK3 (human) (UniProt O75914)
# CLK3 (human) = CLK3 (human) (UniProt P49761)
# KDR (human) = KDR (human) (UniProt P35968)
# DAPK2 (human) = DAPK2 (human) (UniProt Q9UIK4)
# CDK1 CCNA2 (human) = CDK1 CCNA2 (human) (UniProt P06493+P20248)
# AURKC (human) = AURKC (human) (UniProt Q9UQB9)
# TAOK2 (human) = TAOK2 (human) (UniProt Q9UL54)
# FES (human) = FES (human) (UniProt P07332)
# CSNK1D (human) = CSNK1D (human) (UniProt P48730)
# FGR (human) = FGR (human) (UniProt P09769)
# AKT2 (human) = AKT2 (human) (UniProt P31751)
# CDK4 CCND3 (human) = CDK4 CCND3 (human) (UniProt P30281+P11802)
# RET (human) = RET (human) (UniProt P07949)
# PBK (human) = PBK (human) (UniProt Q96KB5)
# ACVR1B (human) = ACVR1B (human) (UniProt P36896)
# STK11 (human) = STK11 (human) (UniProt Q15831)
# CDK5 CDK5R1 p25 (human) = CDK5 CDK5R1 p25 (human) (UniProt Q00535+Q15078)
# NEK11 (human) = NEK11 (human) (UniProt Q8NG66)
# RPS6KA5 KD2 (human) = RPS6KA5 KD2 (human) (UniProt O75582)
# EPHA4 (human) = EPHA4 (human) (UniProt P54764)
# MAP3K2 (human) = MAP3K2 (human) (UniProt Q9Y2U5)
# WEE1 (human) = WEE1 (human) (UniProt P30291)
# PRKACG (human) = PRKACG (human) (UniProt P22612)
# MAP3K7 TAB1 (human) = MAP3K7 TAB1 (human) (UniProt O43318+Q15750)
# ERBB2 (human) = ERBB2 (human) (UniProt P04626)
# DDR2 (human) = DDR2 (human) (UniProt Q16832)
# VRK1 (human) = VRK1 (human) (UniProt Q99986)
# Sequence of DDR2 (human) (Q16832 whole entry, looked up): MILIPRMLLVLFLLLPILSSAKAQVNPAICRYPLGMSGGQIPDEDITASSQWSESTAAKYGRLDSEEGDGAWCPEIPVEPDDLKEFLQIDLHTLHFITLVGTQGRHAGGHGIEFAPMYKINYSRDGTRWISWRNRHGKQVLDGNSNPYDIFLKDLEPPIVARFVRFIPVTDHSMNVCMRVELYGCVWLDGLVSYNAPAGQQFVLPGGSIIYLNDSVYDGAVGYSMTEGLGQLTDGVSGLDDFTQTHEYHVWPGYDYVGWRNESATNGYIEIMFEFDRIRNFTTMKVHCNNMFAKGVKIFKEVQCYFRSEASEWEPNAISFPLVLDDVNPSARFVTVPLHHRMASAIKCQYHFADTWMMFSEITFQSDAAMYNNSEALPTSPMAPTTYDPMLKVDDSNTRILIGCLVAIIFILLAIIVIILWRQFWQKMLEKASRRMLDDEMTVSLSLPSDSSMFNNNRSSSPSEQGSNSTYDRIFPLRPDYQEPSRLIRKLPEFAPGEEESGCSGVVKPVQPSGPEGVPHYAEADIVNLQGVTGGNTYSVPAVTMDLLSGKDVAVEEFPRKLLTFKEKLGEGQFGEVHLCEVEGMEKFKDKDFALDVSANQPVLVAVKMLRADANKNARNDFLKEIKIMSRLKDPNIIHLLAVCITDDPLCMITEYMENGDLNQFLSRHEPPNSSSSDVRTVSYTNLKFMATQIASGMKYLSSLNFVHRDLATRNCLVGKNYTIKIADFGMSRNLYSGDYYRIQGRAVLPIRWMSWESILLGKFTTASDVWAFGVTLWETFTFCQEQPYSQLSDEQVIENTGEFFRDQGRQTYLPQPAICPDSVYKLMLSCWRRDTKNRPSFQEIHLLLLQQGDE
# Sequence of FGR (human) (P09769 whole entry, looked up): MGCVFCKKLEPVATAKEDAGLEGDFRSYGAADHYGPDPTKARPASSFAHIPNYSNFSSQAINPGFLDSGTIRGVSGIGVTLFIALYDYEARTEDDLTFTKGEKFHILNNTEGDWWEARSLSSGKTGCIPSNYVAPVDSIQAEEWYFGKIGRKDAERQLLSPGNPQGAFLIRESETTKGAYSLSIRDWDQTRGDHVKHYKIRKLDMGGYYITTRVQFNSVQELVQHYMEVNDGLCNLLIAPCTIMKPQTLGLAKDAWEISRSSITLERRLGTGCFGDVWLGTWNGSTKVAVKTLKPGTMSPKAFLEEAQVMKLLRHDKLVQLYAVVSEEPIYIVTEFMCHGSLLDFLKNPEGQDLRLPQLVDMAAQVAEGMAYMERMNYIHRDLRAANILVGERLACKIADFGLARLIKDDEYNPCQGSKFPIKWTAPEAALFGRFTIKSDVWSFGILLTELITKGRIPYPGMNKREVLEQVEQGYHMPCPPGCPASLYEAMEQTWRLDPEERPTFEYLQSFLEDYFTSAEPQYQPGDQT
# Sequence of TSSK1B (human) (Q9BXA7 whole entry, looked up): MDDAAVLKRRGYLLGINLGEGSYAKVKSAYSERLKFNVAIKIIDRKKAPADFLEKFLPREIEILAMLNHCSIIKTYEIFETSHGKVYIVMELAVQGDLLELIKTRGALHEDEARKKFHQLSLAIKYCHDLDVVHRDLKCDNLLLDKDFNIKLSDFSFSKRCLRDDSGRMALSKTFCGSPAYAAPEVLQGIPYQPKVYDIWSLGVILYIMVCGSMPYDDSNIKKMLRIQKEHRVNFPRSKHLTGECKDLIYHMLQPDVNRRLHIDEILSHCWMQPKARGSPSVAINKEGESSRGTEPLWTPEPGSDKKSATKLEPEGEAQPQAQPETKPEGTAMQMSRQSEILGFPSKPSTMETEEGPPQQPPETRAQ
# Sequence of KIT (human) (P10721 whole entry, looked up): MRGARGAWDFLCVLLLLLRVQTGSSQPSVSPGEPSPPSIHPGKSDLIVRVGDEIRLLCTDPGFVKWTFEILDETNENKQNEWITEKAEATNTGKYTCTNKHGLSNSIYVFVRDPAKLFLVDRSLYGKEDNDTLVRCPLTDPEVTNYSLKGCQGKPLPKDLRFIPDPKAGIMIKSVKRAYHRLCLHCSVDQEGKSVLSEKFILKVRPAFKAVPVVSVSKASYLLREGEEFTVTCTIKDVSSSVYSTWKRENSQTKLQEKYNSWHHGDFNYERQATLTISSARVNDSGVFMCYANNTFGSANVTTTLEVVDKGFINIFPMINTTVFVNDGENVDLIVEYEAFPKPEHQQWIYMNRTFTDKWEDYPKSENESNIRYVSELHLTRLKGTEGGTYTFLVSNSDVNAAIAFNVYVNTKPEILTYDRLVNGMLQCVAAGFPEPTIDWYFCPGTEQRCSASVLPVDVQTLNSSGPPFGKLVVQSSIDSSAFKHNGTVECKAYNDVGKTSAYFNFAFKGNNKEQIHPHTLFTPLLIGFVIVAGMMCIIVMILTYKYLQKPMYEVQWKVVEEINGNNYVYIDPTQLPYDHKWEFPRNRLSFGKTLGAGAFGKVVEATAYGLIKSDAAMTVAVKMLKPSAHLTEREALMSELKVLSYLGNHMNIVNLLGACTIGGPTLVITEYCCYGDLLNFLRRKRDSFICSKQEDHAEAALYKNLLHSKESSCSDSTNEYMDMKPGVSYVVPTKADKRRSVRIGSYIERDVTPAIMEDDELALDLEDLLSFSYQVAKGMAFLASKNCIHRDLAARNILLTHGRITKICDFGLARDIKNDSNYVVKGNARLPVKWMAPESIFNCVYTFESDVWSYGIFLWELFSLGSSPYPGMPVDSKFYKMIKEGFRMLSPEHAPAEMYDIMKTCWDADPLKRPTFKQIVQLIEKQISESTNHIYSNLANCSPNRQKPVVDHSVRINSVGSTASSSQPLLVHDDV
# Sequence of RAF1 (human) (P04049 whole entry, looked up): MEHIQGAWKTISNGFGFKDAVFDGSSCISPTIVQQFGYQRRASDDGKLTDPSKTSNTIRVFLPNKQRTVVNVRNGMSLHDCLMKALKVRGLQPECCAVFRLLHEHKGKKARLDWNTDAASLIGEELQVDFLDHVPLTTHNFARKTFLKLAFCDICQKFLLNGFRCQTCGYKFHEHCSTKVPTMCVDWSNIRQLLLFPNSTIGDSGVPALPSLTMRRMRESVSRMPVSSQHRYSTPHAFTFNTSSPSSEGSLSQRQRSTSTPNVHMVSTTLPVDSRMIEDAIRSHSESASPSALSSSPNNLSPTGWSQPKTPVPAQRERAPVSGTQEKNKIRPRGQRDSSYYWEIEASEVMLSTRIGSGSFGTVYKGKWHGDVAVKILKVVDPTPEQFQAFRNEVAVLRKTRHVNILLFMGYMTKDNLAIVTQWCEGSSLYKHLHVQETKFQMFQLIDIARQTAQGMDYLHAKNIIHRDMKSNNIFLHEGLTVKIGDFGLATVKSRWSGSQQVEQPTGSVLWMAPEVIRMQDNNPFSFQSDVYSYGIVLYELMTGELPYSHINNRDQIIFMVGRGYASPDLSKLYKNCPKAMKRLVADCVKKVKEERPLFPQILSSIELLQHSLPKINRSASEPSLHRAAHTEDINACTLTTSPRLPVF
# Sequence of MERTK (human) (Q12866 whole entry, looked up): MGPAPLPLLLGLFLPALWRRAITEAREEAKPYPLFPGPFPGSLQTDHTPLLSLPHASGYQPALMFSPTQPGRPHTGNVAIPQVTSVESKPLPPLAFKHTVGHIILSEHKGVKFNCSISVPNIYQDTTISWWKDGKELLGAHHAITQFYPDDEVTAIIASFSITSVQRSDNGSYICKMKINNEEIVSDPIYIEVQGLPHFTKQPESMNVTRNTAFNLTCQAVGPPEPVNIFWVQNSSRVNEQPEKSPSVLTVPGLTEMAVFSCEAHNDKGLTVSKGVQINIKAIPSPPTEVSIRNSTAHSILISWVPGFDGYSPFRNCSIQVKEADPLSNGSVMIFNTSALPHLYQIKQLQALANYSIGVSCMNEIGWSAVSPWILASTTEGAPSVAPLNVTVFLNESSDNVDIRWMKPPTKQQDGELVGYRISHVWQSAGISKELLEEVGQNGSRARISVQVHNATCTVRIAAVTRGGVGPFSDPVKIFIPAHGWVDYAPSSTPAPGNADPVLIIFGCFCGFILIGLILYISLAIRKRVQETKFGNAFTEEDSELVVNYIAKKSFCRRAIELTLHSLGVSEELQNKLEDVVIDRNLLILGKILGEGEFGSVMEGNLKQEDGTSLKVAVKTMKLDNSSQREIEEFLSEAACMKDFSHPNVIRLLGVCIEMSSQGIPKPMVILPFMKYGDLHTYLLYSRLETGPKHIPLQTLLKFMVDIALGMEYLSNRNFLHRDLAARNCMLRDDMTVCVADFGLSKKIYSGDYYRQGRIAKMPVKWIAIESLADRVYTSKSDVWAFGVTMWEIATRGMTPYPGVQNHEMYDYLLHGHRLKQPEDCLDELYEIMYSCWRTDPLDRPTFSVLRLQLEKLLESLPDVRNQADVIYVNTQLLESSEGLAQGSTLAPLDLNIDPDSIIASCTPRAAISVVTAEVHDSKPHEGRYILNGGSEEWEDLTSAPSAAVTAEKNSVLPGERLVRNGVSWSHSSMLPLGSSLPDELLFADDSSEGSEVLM
# Sequence of NEK11 (human) (Q8NG66 whole entry, looked up): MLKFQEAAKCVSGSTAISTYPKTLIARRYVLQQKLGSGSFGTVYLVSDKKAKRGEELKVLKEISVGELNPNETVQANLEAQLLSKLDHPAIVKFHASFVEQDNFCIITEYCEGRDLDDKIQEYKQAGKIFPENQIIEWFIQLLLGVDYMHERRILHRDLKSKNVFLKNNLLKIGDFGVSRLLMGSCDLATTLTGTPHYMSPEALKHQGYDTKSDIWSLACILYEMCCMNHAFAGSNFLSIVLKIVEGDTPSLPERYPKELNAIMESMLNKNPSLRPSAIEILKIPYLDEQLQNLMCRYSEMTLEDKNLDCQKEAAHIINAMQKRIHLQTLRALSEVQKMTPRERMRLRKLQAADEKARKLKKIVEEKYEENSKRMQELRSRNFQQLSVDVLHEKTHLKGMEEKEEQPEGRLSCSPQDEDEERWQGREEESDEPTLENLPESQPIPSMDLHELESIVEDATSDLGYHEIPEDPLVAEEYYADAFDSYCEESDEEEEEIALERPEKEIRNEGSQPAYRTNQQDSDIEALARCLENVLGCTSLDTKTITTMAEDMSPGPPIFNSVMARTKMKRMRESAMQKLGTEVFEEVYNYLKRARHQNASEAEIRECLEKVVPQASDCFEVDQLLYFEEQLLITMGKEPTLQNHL
smiles,measurement,setting,value
O=C1NC(=O)/C(=C/c2ccc3c(c2)OC(F)(F)O3)S1,residual activity,TSSK1B (human),93.3%
same,residual activity,PHKG2 (human),95.2%
same,residual activity,PDPK1 (human),100%
same,residual activity,CDK6 CCND1 (human),95.4%
same,residual activity,RPS6KB1 (human),85.1%
same,residual activity,TEC (human),108%
same,residual activity,MAPK14 (human),86.7%
same,residual activity,PKN2 (human),113%
same,residual activity,KIT (human),93.4%
same,residual activity,TNK2 (human),93.3%
same,residual activity,ERBB4 (human),99.5%
same,residual activity,MAPK1 (human),85.7%
same,residual activity,TAOK1 (human),90%
same,residual activity,RAF1 (human),95.5%
same,residual activity,MERTK (human),94.5%
same,residual activity,PAK3 (human),93.1%
same,residual activity,CLK3 (human),96.8%
same,residual activity,KDR (human),94.6%
same,residual activity,DAPK2 (human),105%
same,residual activity,CDK1 CCNA2 (human),97.2%
same,residual activity,AURKC (human),98.1%
same,residual activity,TAOK2 (human),96.9%
same,residual activity,FES (human),98.3%
same,residual activity,CSNK1D (human),98.9%
same,residual activity,FGR (human),95.8%
same,residual activity,AKT2 (human),96.2%
same,residual activity,CDK4 CCND3 (human),98.2%
same,residual activity,RET (human),102%
same,residual activity,PBK (human),91.8%
same,residual activity,ACVR1B (human),99.4%
same,residual activity,STK11 (human),96.9%
same,residual activity,CDK5 CDK5R1 p25 (human),89.7%
same,residual activity,NEK11 (human),111%
same,residual activity,RPS6KA5 KD2 (human),91.1%
same,residual activity,EPHA4 (human),95.9%
same,residual activity,MAP3K2 (human),94%
same,residual activity,WEE1 (human),88.8%
same,residual activity,PRKACG (human),102%
same,residual activity,MAP3K7 TAB1 (human),95.3%
same,residual activity,ERBB2 (human),102%
same,residual activity,DDR2 (human),90.1%
same,residual activity,VRK1 (human),85.6%
COc1cc2ncnc(Nc3cccc(Cl)c3)c2cc1OC,residual activity,TSSK1B (human),95.7%
same,residual activity,PHKG2 (human),92.6%
same,residual activity,PDPK1 (human),81.9%
same,residual activity,CDK6 CCND1 (human),92.5%
same,residual activity,RPS6KB1 (human),88.5%
same,residual activity,TEC (human),126%
same,residual activity,MAPK14 (human),107%
same,residual activity,PKN2 (human),89.8%
same,residual activity,KIT (human),94%
same,residual activity,TNK2 (human),28.6%
same,residual activity,ERBB4 (human),35.5%
same,residual activity,MAPK1 (human),91.7%
same,residual activity,TAOK1 (human),108%
same,residual activity,RAF1 (human),78.4%
same,residual activity,MERTK (human),76.9%
same,residual activity,PAK3 (human),98.9%
same,residual activity,CLK3 (human),90.5%
same,residual activity,KDR (human),74.7%
same,residual activity,DAPK2 (human),93.3%
same,residual activity,CDK1 CCNA2 (human),94.9%
same,residual activity,AURKC (human),85.8%
same,residual activity,TAOK2 (human),96.1%
same,residual activity,FES (human),104%
same,residual activity,CSNK1D (human),100%
same,residual activity,FGR (human),75.3%
same,residual activity,AKT2 (human),84.1%
same,residual activity,CDK4 CCND3 (human),103%
same,residual activity,RET (human),35.3%
same,residual activity,PBK (human),70.9%
same,residual activity,ACVR1B (human),98%
same,residual activity,STK11 (human),96.8%
same,residual activity,CDK5 CDK5R1 p25 (human),87.3%
same,residual activity,NEK11 (human),96.9%
same,residual activity,RPS6KA5 KD2 (human),97.8%
same,residual activity,EPHA4 (human),81.7%
same,residual activity,MAP3K2 (human),98.2%
same,residual activity,WEE1 (human),92.4%
same,residual activity,PRKACG (human),87.9%
same,residual activity,MAP3K7 TAB1 (human),96.9%
same,residual activity,ERBB2 (human),22.5%
same,residual activity,DDR2 (human),99.2%
same,residual activity,VRK1 (human),105%
